# Reference: ChEMBL document CHEMBL4622896, “Enzymatic biosynthesis and biological evaluation of novel 17-AAG glucoside as potential anti-cancer agents” (Bioorg Med Chem Lett, 2020)
# Calls of active or inactive are those of the source. No cut-off for these calls is given here.
# Assays:
# [1] = molecular target: T1, Heat shock protein HSP90 (Homo sapiens, UniProt P07900+P08238); test: Inhibition of HSP90 in human CNE2Z cells assessed as downregulation of Her-2 expression at 10 to 40 uM by Western blot analysis; format: cell-based
# [2] = Toxicity in nude mouse xenografted with human CNE2Z cells assessed as effect on kidney at 1 mg/kg, ip administered for 19 days by hematoxylin and eosin staining based assay; format: organism-based; conditions: in vivo, 456 h
# [3] = Toxicity in nude mouse xenografted with human CNE2Z cells assessed as effect on liver at 1 mg/kg, ip administered for 19 days by hematoxylin and eosin staining based assay; format: organism-based; conditions: in vivo, 456 h
# [4] = Toxicity in nude mouse xenografted with human CNE2Z cells assessed as effect on body weight at 1 mg/kg, ip administered for 19 days; format: organism-based; conditions: in vivo, 456 h
# [5] = Toxicity in nude mouse xenografted with human CNE2Z cells assessed as effect on lung at 1 mg/kg, ip administered for 19 days by hematoxylin and eosin staining based assay; format: organism-based; conditions: in vivo, 456 h
# [6] = molecular target: T1, Heat shock protein HSP90; test: Inhibition of HSP90 in human CNE2Z cells assessed as downregulation of HIF-1alpha expression at 10 to 40 uM by Western blot analysis; format: cell-based
# [7] = tested on: CNE2Z; test: Antitumor activity against human CNE2Z cells xenografted in nude mouse assessed as reduction in tumor volume at 1 mg/kg, ip administered for 19 days relative to control; format: functional; conditions: 456 h
# [8] = molecular target: T1, Heat shock protein HSP90; test: Inhibition of HSP90 in human CNE2Z cells assessed as downregulation of c-Raf expression at 10 to 40 uM by Western blot analysis; format: cell-based
# [9] = Solubility of the compound in water relative to 17-AAG; format: physicochemical; conditions: buffer
# [10] = tested on: HepG2; test: Antiproliferative activity against human HepG2 cells assessed as cell growth inhibition by MTT assay; format: functional, cell-based
# [11] = Solubility of the compound in water; format: physicochemical
# [12] = molecular target: T1, Heat shock protein HSP90; test: Inhibition of HSP90 ATPase activity (unknown origin) malachite-green phosphate assay; format: protein assay
# [13] = tested on: CNE2Z; test: Antiproliferative activity against human CNE2Z cells assessed as cell growth inhibition by MTT assay; format: functional, cell-based
# [14] = tested on: MDA-MB-231; test: Antiproliferative activity against human MDA-MB-231 cells assessed as cell growth inhibition by MTT assay; format: functional, cell-based
# [15] = tested on: SW480; test: Antiproliferative activity against human SW480 cells assessed as cell growth inhibition by MTT assay; format: functional, cell-based
# [16] = molecular target: T1, Heat shock protein HSP90; test: Inhibition of HSP90 in human CNE2Z cells assessed as downregulation of Akt expression at 10 to 40 uM by Western blot analysis; format: cell-based
# [17] = tested on: SMMC-7721; test: Antiproliferative activity against human SMMC7721 cells assessed as cell growth inhibition by MTT assay; format: functional, cell-based
# [18] = molecular target: T1, Heat shock protein HSP90; test: Inhibition of HSP90 in human CNE2Z cells assessed as downregulation of Bcl2 expression at 10 to 40 uM by Western blot analysis; format: cell-based
# [19] = Toxicity in nude mouse xenografted with human CNE2Z cells assessed as effect on body weight at 5 mg/kg, ip administered for 19 days; format: organism-based; conditions: in vivo, 456 h
inhibition [1],inhibition [6],inhibition [8],Ratio [9],IC50 [10],solubility [11],IC50 [12],IC50 [14],IC50 [15],inhibition [16],IC50 [17],inhibition [18],SMILES,Activity [2],Activity [3],Activity [4],Activity [5],inhibition in vivo at 1 mg/kg [7],IC50 [13],Activity [19]
Active,Active,Active,10.5,6280 nM,661 µM,> 100000 nM,28500 nM,6130 nM,Active,5260 nM,Active,C=CCNC1=C2C[C@@H](C)C[C@H](OC)[C@H](O[C@@H]3O[C@H](CO)[C@@H](O)[C@H](O)[C@H]3O)[C@@H](C)/C=C(\C)[C@H](OC(N)=O)[C@@H](OC)/C=C\C=C(/C)C(=O)NC(=CC1=O)C2=O (stereo in doubt),Non-Toxic,Non-Toxic,Non-Toxic,Non-Toxic,75.5%,9200 nM,
,,,,1740 nM,,,620 nM,510 nM,,110 nM,,COC1=C2C[C@@H](C)C[C@H](OC)[C@H](O)[C@@H](C)/C=C(\C)[C@H](OC(N)=O)[C@@H](OC)/C=C\C=C(/C)C(=O)NC(=CC1=O)C2=O [GELDANAMYCIN],,,,,,310 nM,
,,,,320 nM,63 µM,,1790 nM,280 nM,,190 nM,,C=CCNC1=C2C[C@@H](C)C[C@H](OC)[C@H](O)[C@@H](C)/C=C(\C)[C@H](OC(N)=O)[C@@H](OC)/C=C\C=C(/C)C(=O)NC(=CC1=O)C2=O [TANESPIMYCIN],,,,,,8410 nM,Non-Toxic
